Among the data in ChEMBL document CHEMBL1121420, “Preparation and antitumor activity of olivomycin A analogues” (1980) are Activity and T/C values, retold here.

The test system of assay [1] is Mus musculus. Briefly: Average change in weight is tested in mice at a dose of 2 mg/kg. The assay is classed as functional. On the set-up: unit not given here.
The subject of assay [2] is P388. The assay can be described thus: Tested on P-388 Leukemia for median survival time treated to median survival time control when administered intraperitoneally at a dose of 2 mg/kg. The assay is classed as functional, Mus musculus. Conditions: route intraperitoneal.
Assay [3] concerns P388. Briefly: Tested on P-388 Leukemia for median survival time treated to median survival time control when administered intraperitoneally at a dose of 4 mg/kg. The assay is classed as functional, Mus musculus. Conditions: route intraperitoneal.
In assay [4] the test system is Mus musculus. The assay can be described thus: Average change in weight is tested in mice at a dose of 4 mg/kg. The format is functional. On the set-up: unit not given here.
Assay [5] has as its system Mus musculus. Briefly: Average change in weight is tested in mice at a dose of 16 mg/kg. The assay is classed as functional. The arrangement: unit not given here.
The subject of assay [6] is Mus musculus. Briefly: Average change in weight is tested in mice at a dose of 8 mg/kg. The format is functional. On the set-up: unit not given here.
The test system of assay [7] is P388. The assay can be described thus: Tested on P-388 Leukemia for median survival time treated to median survival time control when administered intraperitoneally at a dose of 8 mg/kg. The assay is classed as functional, Mus musculus. Conditions: route intraperitoneal.
Assay [8] deals with P388. Briefly: Tested on P-388 Leukemia for median survival time treated to median survival time control when administered intraperitoneally at a dose of 16 mg/kg. The assay is classed as functional, Mus musculus. Conditions: route intraperitoneal.
For assay [9], the system named is P388. The assay can be described thus: Tested on P-388 Leukemia for median survival time treated to median survival time control when administered intraperitoneally at a dose of 0.5 mg/kg. The assay is classed as functional, Mus musculus. As to conditions: route intraperitoneal.
Assay [10] relates to Mus musculus. The assay can be described thus: Average change in weight is tested in mice at a dose of 0.5 mg/kg. The assay is classed as functional.
Assay [11] deals with P388. Briefly: Tested on P-388 Leukemia for median survival time treated to median survival time control when administered intraperitoneally at a dose of 1 mg/kg. The assay is classed as functional, Mus musculus. Conditions: route intraperitoneal.
Assay [12] has as its system P388. The assay can be described thus: Tested on P-388 Leukemia for median survival time treated to median survival time control when administered intraperitoneally at a dose of 0.25 mg/kg. The format is functional, Mus musculus. As to conditions: route intraperitoneal.
Assay [13] deals with Mus musculus. The assay can be described thus: Average change in weight is tested in mice at a dose of 0.25 mg/kg. The format is functional.
For assay [14], the system named is Mus musculus. Briefly: Average change in weight is tested in mice at a dose of 1 mg/kg. The arrangement: unit not given here. The format is functional.
For assay [15], the system named is P388. Briefly: Tested on P-388 Leukemia for median survival time treated to median survival time control when administered intraperitoneally at a dose of 4 mg/kg; Toxic. The assay is classed as functional, organism-based. The arrangement: dose 4 mg/kg. As to conditions: Mus musculus.
Assay [16] concerns Mus musculus. Briefly: Average change in weight is tested in mice at a dose of 4 mg/kg; Toxic. The format is functional, organism-based. The arrangement: dose 4 mg/kg.

One may read the T/C as the result in the treated group divided by that in the control group, in per cent. With `COC(/C(=N/NC(N)=O)C(O)C(C)O)C1Cc2cc3cc(OC4CC(OC(C)=O)C(OC5CC(O)C(OC)C(C)O5)C(C)O4)cc(O)c3c(O)c2C(=O)C1OC1CC(OC2CC(OC3CC(C)(O)C(OC(=O)C(C)C)C(C)O3)C(O)C(C)O2)C(O)C(C)O1` (stereo unspecified), the Activity in [1] is given as 1.8; in assay [4], 1.3; in assay [5], -2.3; in assay [6], 1.2. The T/C in [2] is recorded as 85%; in assay [3] it was 110%; in [7], 110%; in assay [8], 105%.
As for `COC(C(=O)C(O)C(C)O)C1Cc2cc3cc(OC4CC(OC(C)=O)C(OC5CC(O)C(OC)C(C)O5)C(C)O4)c([N+](=O)[O-])c(O)c3c(O)c2C(=O)C1OC1CC(OC2CC(OC3CC(C)(O)C(OC(=O)C(C)C)C(C)O3)C(O)C(C)O2)C(O)C(C)O1` (stereo unspecified), the Activity in [1] was determined as 2.8; in assay [4], 2; in assay [5] it was 2.4; in assay [6], 3.5. Moreover, the T/C in [2] is given as 100%; in [3] it was 110%; in assay [7], 100%; in [8] it was 100%.
With `COc1cc(OC2CC(OC(C)=O)C(OC3CC(O)C(OC)C(C)O3)C(C)O2)cc2cc3c(c(O)c12)C(=O)C(OC1CC(OC2CC(OC4CC(C)(O)C(OC(=O)C(C)C)C(C)O4)C(O)C(C)O2)C(O)C(C)O1)C(C(OC)C(=O)C(O)C(C)O)C3` (stereo unspecified), the Activity in assay [1] was 0.7; in assay [10] it was 1.3; in assay [4] it was 1.3; in assay [13], 1.3; in assay [14], 1.3. Further, the T/C in assay [9] was 133%; in assay [2], 156%; in assay [3] it was 156%; in [11], 144%; in assay [12], 106%.
Consider `C/N=C(\C(O)C(C)O)C(OC)C1Cc2cc3cc(OC4CC(OC(C)=O)C(OC5CC(O)C(OC)C(C)O5)C(C)O4)cc(O)c3c(O)c2CC1OC1CC(OC2CC(OC3CC(C)(O)C(OC(=O)C(C)C)C(C)O3)C(O)C(C)O2)C(O)C(C)O1` (stereo unspecified), for which the Activity is on record as -0.3 in [1], 0.4 in [4], -3.3 in assay [6] and 0.3 in assay [14]. Moreover, the T/C in [2] is recorded as 140%; in assay [3], 110%; in [11] it was 125%; in [7] it was 115%.
For `COC(C(=O)C(O)C(C)O)C1Cc2cc3cc(OC4CC(OC(C)=O)C(OC5CC(O)C(OC)C(C)O5)C(C)O4)cc(O)c3c(O)c2C(=O)C1OC1CC(OC2CC(OC3CC(C)(O)C(OC(=O)C(C)C)C(C)O3)C(O)C(C)O2)C(O)C(C)O1` (stereo unspecified), the Activity is on record as 0 in [1], 1 in assay [10], 0.4 in assay [4] and 0.3 in [14]. In addition, the T/C in assay [9] is recorded as 114%; in assay [2], 146%; in assay [3] it was 157%; in [11], 130%.
In the case of `COC(/C(=N/O)C(O)C(C)O)C1Cc2cc3cc(OC4CC(OC(C)=O)C(OC5CC(O)C(OC)C(C)O5)C(C)O4)cc(O)c3c(O)c2C(=O)C1OC1CC(OC2CC(OC3CC(C)(O)C(OC(=O)C(C)C)C(C)O3)C(O)C(C)O2)C(O)C(C)O1` (stereo unspecified), the T/C entry in assay [15] was “Toxic”; in assay [9], 100%; in assay [2], 155%; in assay [11], 100%. Besides, the Activity in assay [1] is 1.3; in [4], 0.8; in [6], 0.8; in assay [16], “Toxic”.
As to `CO/N=C(\C(O)C(C)O)C(OC)C1Cc2cc3cc(OC4CC(OC(C)=O)C(OC5CC(O)C(OC)C(C)O5)C(C)O4)cc(O)c3c(O)c2C(=O)C1OC1CC(OC2CC(OC3CC(C)(O)C(OC(=O)C(C)C)C(C)O3)C(O)C(C)O2)C(O)C(C)O1` (stereo unspecified), the Activity in assay [1] came to 0.3; in assay [10], 0.8; in [4], 1.3; in assay [6], 2.8; in [13] it was 1.3; in [14] it was 0.9. Further, the T/C in assay [9] was found to be 156%; in assay [2], 167%; in [3] it was 156%; in assay [11], 144%; in assay [12] it was 128%; in assay [7], 144%.
As for `COC(C(=O)C(O)C(C)O)C1Cc2cc3cc(OC4CC(OC(C)=O)C(OC5CC(O)C(OC)C(C)O5)C(C)O4)c(Br)c(O)c3c(O)c2C(=O)C1OC1CC(OC2CC(OC3CC(C)(O)C(OC(=O)C(C)C)C(C)O3)C(O)C(C)O2)C(O)C(C)O1` (stereo unspecified), the Activity in assay [1] worked out at 0.3; in [4] it was 1.2; in [5] it was 0.1; in assay [6] it was 0.1. Further, the T/C in assay [2] came out at 110%; in [3] it was 120%; in [7], 150%; in [8] it was 130%.
For `COC(C(=O)C1OC(C)(C)OC1C)C1Cc2cc3cc(OC4CC(OC(C)=O)C(OC5CC(O)C(OC)C(C)O5)C(C)O4)cc(O)c3c(O)c2C(=O)C1OC1CC(OC2CC(OC3CC(C)(O)C(OC(=O)C(C)C)C(C)O3)C(O)C(C)O2)C(O)C(C)O1` (stereo unspecified), the Activity stood at 0.6 in assay [1], 0.3 in [4], 1.3 in [5] and 0.8 in assay [6]. Further, the T/C is on record as 117% in assay [2], 139% in assay [3], 156% in [7] and 167% in [8].
Regarding `COC1C(O)CC(OC2C(C)OC(Oc3cc(O)c4c(O)c5c(cc4c3)CC(C(OC)C(O)C(O)C(C)O)C(OC3CC(OC4CC(OC6CC(C)(O)C(OC(=O)C(C)C)C(C)O6)C(O)C(C)O4)C(O)C(C)O3)C5=O)CC2OC(C)=O)OC1C` (stereo unspecified), the Activity was determined as 1.1 in [1], 0.2 in assay [4], 0.9 in [5] and 0.2 in assay [6]. The T/C was 90% in [2], 125% in assay [3], 140% in [7] and 130% in [8].
As for `COC(C(=O)C(O)C(C)O)C1Cc2cc3cc(OC4CC(OC(C)=O)C(OC5CC(O)C(OC)C(C)O5)C(C)O4)cc(O)c3c(O)c2CC1OC1CC(OC2CC(OC3CC(C)(O)C(OC(=O)C(C)C)C(C)O3)C(O)C(C)O2)C(O)C(C)O1` (stereo unspecified), the Activity in assay [1] was 0.7; in assay [4], 0.7; in [6] it was 1; in assay [14], 1.1. Further, the T/C in [2] is reported as 150%; in [3] it was 140%; in assay [11], 110%; in assay [7], 150%.
In the case of `COC(/C(=N/Nc1ccccc1)C(O)C(C)O)C1Cc2cc3cc(OC4CC(OC(C)=O)C(OC5CC(O)C(OC)C(C)O5)C(C)O4)cc(O)c3c(O)c2C(=O)C1OC1CC(OC2CC(OC3CC(C)(O)C(OC(=O)C(C)C)C(C)O3)C(O)C(C)O2)C(O)C(C)O1` (stereo unspecified), the Activity amounted to 0.2 in [1], 0.5 in [4], 1.3 in assay [5] and 0.5 in assay [6]. Further, the T/C in assay [2] is 120%; in assay [3], 120%; in [7], 140%; in assay [8] it was 140%.
In the case of `COc1cc(OC2CC(OC(C)=O)C(OC3CC(O)C(OC)C(C)O3)C(C)O2)cc2cc3c(c(OC)c12)C(=O)C(OC1CC(OC2CC(OC4CC(C)(O)C(OC(=O)C(C)C)C(C)O4)C(O)C(C)O2)C(O)C(C)O1)C(C(OC)C(=O)C(O)C(C)O)C3` (stereo unspecified), the Activity in [1] was 0.3; in [4], 0.2; in [5] it was 0.9; in assay [6] it was 0.4. Besides, the T/C is on record as 115% in [2], 130% in assay [3], 155% in [7] and 140% in [8].
`COC1C(O)CC(OC2C(C)OC(Oc3cc(O)c4c(O)c5c(cc4c3)CC(C(OC)C(O)C(O)C(C)O)C(OC3CC(OC4CC(OC6CC(C)(O)C(OC(=O)C(C)C)C(C)O6)C(O)C(C)O4)C(O)C(C)O3)C5)CC2OC(C)=O)OC1C` (stereo unspecified): the Activity in assay [1] stood at 5.3; in assay [4], 3.7; in assay [5], 0.5; in assay [6], 3.5. For the same compound, the T/C in [2] came to 100%; in assay [3] it was 100%; in assay [7], 106%; in assay [8], 139%.
Take `COC(C(=O)C1OC2(CCCCC2)OC1C)C1Cc2cc3cc(OC4CC(OC(C)=O)C(OC5CC(O)C(OC)C(C)O5)C(C)O4)cc(O)c3c(O)c2C(=O)C1OC1CC(OC2CC(OC3CC(C)(O)C(OC(=O)C(C)C)C(C)O3)C(O)C(C)O2)C(O)C(C)O1` (stereo unspecified): the Activity is reported as 1 in assay [1], 0 in assay [4], 0.7 in [5] and 0.2 in [6]. For the same compound, the T/C in [2] was 111%; in assay [3] it was 100%; in assay [7], 139%; in assay [8], 100%.
